The conditions of series [1]: standard procedure using buffer in the receiver compartment; ref [24], [33]; cited from earlier work.
The next series has as its target T1, Abcg2 (Mus musculus, UniProt Q7TMS5).
T1 sequence (Q7TMS5 1-657): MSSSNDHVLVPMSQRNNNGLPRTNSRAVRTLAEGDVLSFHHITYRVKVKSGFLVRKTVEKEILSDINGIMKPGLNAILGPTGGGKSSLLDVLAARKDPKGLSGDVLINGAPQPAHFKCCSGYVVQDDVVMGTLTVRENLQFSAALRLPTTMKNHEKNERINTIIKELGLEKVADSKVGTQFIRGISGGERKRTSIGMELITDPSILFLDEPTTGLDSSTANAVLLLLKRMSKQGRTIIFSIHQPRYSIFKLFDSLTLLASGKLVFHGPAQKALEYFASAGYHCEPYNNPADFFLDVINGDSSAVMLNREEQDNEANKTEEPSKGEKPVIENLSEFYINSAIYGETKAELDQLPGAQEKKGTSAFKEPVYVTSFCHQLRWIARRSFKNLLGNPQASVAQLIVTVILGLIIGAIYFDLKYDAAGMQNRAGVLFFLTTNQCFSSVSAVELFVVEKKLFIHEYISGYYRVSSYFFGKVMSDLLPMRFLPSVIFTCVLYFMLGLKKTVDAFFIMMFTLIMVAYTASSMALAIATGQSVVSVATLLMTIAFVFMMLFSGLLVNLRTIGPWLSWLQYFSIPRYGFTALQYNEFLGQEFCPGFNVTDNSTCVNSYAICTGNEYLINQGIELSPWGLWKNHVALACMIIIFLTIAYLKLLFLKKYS
Description: Inhibition of efflux of substrate drugs from the brain of Abcb1a/b KO mice. Format: in vivo.

The test system of the next series is Abcb1a/b and Abcg2. Kind of series: Inhibition of efflux of substrate drugs from the brain of WT mice. The settings on record: mouse, in vivo.
Series [2] is described as follows: Plasma concentration at the end of the 3 h i.p. infusion. The series is classed as in vivo. The settings on record: male, FVB, mouse, ip.
The conditions of series [3]: cited from earlier work.
The subject of a further series is ABCB1. The settings on record: humans, cited from earlier work.
A short description of series [4]: Rapid equilibrium dialysis. Format: in vitro ADME. For orientation: In equilibrium dialysis only unbound substance equilibrates across the membrane.
The target of a further series is Abcb1a/b (Mus musculus, UniProt P21447). Description: Inhibition of efflux of substrate drugs from the brain of Abcg2 KO mice. The series is classed as in vivo.
Chain of Abcb1a/b (P21447 whole entry): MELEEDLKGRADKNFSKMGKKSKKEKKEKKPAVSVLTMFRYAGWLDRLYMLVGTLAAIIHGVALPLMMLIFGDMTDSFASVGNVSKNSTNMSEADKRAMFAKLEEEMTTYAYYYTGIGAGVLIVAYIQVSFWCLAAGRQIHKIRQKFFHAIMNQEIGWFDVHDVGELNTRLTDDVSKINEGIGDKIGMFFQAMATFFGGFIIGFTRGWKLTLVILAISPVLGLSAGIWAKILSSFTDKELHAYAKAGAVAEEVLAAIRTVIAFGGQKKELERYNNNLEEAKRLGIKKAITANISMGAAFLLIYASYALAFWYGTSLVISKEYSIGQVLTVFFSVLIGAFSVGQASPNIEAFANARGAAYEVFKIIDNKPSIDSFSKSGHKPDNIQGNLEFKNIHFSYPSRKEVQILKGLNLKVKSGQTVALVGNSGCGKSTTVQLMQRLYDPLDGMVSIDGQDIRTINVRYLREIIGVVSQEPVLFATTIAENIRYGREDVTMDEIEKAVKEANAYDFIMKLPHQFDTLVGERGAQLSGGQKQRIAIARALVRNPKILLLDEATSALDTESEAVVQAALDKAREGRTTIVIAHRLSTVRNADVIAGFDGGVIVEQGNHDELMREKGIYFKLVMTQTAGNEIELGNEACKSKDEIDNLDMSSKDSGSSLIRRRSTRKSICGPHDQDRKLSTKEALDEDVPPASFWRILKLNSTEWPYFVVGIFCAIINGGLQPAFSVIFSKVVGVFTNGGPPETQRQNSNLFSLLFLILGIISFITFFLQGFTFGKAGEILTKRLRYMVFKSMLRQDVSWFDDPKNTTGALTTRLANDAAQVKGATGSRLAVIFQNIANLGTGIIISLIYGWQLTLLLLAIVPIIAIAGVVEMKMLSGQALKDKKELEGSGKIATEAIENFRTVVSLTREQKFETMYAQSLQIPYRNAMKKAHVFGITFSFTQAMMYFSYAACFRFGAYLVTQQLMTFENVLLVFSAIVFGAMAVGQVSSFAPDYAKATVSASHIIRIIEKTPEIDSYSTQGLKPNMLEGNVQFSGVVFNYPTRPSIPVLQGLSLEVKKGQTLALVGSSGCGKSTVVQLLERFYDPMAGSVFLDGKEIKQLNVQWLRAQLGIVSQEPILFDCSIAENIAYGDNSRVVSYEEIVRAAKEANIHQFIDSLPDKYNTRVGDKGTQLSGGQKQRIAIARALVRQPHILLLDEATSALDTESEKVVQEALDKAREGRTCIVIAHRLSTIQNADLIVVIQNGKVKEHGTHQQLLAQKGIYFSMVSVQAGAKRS
Another series addresses T2, human ABCG2/BCRP (Homo sapiens, UniProt Q9UNQ0).
T2 sequence (Q9UNQ0 1-655): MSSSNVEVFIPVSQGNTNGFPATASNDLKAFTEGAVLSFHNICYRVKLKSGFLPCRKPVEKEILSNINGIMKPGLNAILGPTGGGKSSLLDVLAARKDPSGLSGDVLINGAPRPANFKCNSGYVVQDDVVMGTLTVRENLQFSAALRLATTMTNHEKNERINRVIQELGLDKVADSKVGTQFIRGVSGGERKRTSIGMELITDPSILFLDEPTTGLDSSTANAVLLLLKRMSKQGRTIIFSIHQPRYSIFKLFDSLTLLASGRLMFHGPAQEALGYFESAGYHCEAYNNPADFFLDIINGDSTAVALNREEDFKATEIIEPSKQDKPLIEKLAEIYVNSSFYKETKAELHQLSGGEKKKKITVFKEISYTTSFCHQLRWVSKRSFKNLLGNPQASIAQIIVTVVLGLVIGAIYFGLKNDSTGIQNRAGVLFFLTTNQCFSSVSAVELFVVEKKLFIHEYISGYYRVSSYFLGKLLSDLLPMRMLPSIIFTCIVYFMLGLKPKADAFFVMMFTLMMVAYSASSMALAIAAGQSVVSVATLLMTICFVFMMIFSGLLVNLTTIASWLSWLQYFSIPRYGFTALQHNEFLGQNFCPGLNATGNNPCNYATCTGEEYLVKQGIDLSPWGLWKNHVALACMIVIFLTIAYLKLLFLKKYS
Kind of series: Drug accumulation assay in MDCKII-BCRP cells with 8-drug mixture plus inhibitor. The settings on record: in vitro, MDCKII-BCRP vs MDCK-MDR1.

The conditions of series [5]: cited from earlier work. This is another data set of the same source.
A further series in a line: Brain penetration. The settings on record: WT mice, ABC transporter mediated efflux present, no inhibitor.

Like-named read-outs stand apart in the source and are kept apart here.

Consider `COc1cc2c(cc1OC)CN(CCc1ccc(NC(=O)c3cccc4c(=O)c5cccc(OC)c5[nH]c34)cc1)CC2` [Elacridar, 9,10-dihydro-5-methoxy-9-oxo-N-[4-[2-(1,2,3,4-tetrahydro-6,7-dimethoxy-2-isoquinolinyl)ethyl]phenyl]-4-acridine-carboxamide], for which the Free fraction result in series [1] is reported as “below 0.01”. Also, at Abcg2 (Abcb1a/b KO mice, palbociclib, dasatinib and erlotinib (Class II)), the “Elacridar plasma level for maximum inhibition of efflux” value was “above 1200 nM”. In addition, the “Plasma level at which inhibitor inhibits its own ABCG2-mediated efflux” value on Abcg2 (brain efflux in mice) is listed as “about 1200 nM”. Besides, the “Proposed target plasma level to enhance brain entry” value in the series on Abcb1a/b and Abcg2 was 1200 nM and about 700 ng/ml.
Compound `C#Cc1cccc(Nc2ncnc3cc(OCCOC)c(OCCOC)cc23)c1` [Erlotinib] had a concentration at 3 h in series [2] of 100 to 250 nM.
With `CNC(=O)c1cc(Oc2ccc(NC(=O)Nc3ccc(Cl)c(C(F)(F)F)c3)cc2)ccn1` [Sorafenib], the “Fold higher brain uptake in Abcg2;Abcb1a/b KO vs WT mice” value in series [3] (LC-MS/MS on brain homogenates, ref [39]) is 9.3 fold.
In the case of `COc1cc2c(cc1OC)CN(CCc1ccc(NC(=O)c3cc(OC)c(OC)cc3NC(=O)c3cnc4ccccc4c3)cc1)CC2` [Tariquidar], the “Fold increase of VT, brain of [11C]verapamil” value in the series on ABCB1 (tariquidar 4–8 mg/kg, infusion 1.5–2.5 h, ref [19], [35]) is given as 3.5 fold. Besides, the “Fold increased brain radioactivity of [11C]verapamil” value with ABCB1 (tariquidar 2 mg/kg, 30 min i.v. infusion, ref [41]) is on record as not above 2 fold. Moreover, the Free fraction entry in series [1] is “below 0.01”. Moreover, the “Change of own B/P ratio with plasma concentration” value at Abcg2 (Abcb1a/b KO and WT mice (Abcg2 proficient)) was “did not increase”. For the same compound, the “Enhancement of brain accumulation of ABCG2-substrate drugs” value on Abcg2 (Abcb1a/b KO mice) is “none of the ABCG2-substrate drugs exhibit significant enhancement”. In series [4] (RED competition setup), the “Plasma protein binding, mouse versus human plasma” value is “very high but similar in mouse and human plasma”. Besides, the “Fraction retrieved in the receiver chamber” value in [4] (RED, undiluted human or mouse plasma to human plasma, after 24 h of incubation) is listed as 2–3%. Moreover, the concentration at 3 h in series [2] (10.5 mg/kg/h) was more than 6000 nM. In addition, at Abcb1a/b, the “Inhibitor plasma level for (near) complete inhibition of ABCB1 at the BBB” value is listed as “at least 4000 nM” and the “Plasma level above which own B/P ratio starts to increase” value was “above 4000 nM”. Moreover, the “Tariquidar plasma level required for near complete ABCB1 inhibition” value on Abcb1a/b (for loperamide and afatinib) is not below 6 µM. Moreover, on Abcb1a/b (for verapamil and erlotinib), the “Tariquidar plasma level required for near complete ABCB1 inhibition” value is given as “at least 4000 nM”. The “Fold higher IC50 for ABCG2 than for ABCB1” value at human ABCG2/BCRP is recorded as “about 10 fold”. Also, the “Plasma level at the end of the infusion” value in series [5] (humans, tariquidar 4–8 mg/kg i.v., 1.5–2.5 h, ref [19], [35]) is reported as 3000 to 4000 nM. The Oral bioavailability result in [5] (oral dosing in humans, ref [20]) is on record as “very low”.
With `CCCS(=O)(=O)Nc1ccc(F)c(C(=O)c2c[nH]c3ncc(-c4ccc(Cl)cc4)cc23)c1F` [Vemurafenib], in the series “Brain penetration”, the B/P ratio is given as 0.02. For the same compound, the concentration at 3 h in [2] lay within 100 to 250 nM.
In [2], `COc1ccc(CCN(C)CCCC(C#N)(c2ccc(OC)c(OC)c2)C(C)C)cc1OC` (stereo not shown) [Verapamil] showed a concentration at 3 h of 100 to 250 nM.
For the compound `CNC(=O)c1cc(Oc2ccc(N[11C](=O)Nc3ccc(Cl)c(C(F)(F)F)c3)cc2)ccn1` [[^11C]sorafenib], the “Fold higher brain uptake in Abcg2;Abcb1a/b KO vs WT mice” value in [3] (PET, ref [38]) was 3 fold.
